# Several values for one entry are separate records, joined by “and”; a condition that tells them apart may be missing. Equal values may be shown once. Read-outs that look alike come from different tables or passages of the source.
# Key:
# [1] = system: p53 signaling (p53RE-bla HCT-116 cells); assay: cells; type: cell-based; conditions: Homo sapiens; for EC50: HCT-116, 0.5 h
# [2] = system: p53 signaling (p53RE-bla HCT-116 cells); assay: cells; conditions: Homo sapiens
# [3] = system: p53 signaling (p53RE-bla HCT-116 cells); assay: cells; type: cell-based
# [4] = system: p53 signaling (p53RE-bla HCT-116 cells); assay: cells; conditions: Homo sapiens; remark: listed apart in the source
# [5] = system: p53RE-bla HCT-116 cells
# [6] = system: p53 signaling (p53RE-bla HCT-116 cells)
# [7] = system: p53 signaling (p53RE-bla HCT-116 cells); assay: cells; type: cell-based; conditions: Homo sapiens; for EC50: HCT-116
# [8] = system: p53 signaling (p53RE-bla HCT-116 cells); remark: listed apart in the source
# [9] = HCT-116, read-out: p53 activation EC50
# [10] = HCT-116, read-out: p53 activation efficacy
# [11] = HCT-116, read-out: p53 activation efficacy, primary screening
# [12] = HCT-116, read-out: p53 activation EC50, RLM
# [13] = Homo sapiens, HCT-116, read-out: p53 activation EC50, No MS
# [14] = read-out: p53 activation EC50, No MS
# [15] = HCT-116, read-out: p53 activation EC50, HLM
# [16] = Homo sapiens, HCT-116, read-out: p53 activation efficacy
# [17] = read-out: p53 activation EC50, RLM
SMILES,"Emax [4, 10] [%]",Viability EC50 [5],Viability efficacy [5],p53 activation EC50 [6],"p53 activation Efficacy, No MS [3]","EC50 [4, 15] [µM]","Viability EC50, HLM [5]","Viability EC50, No MS [5]","Viability EC50, RLM [5]","Viability Efficacy, HLM [5]","Viability Efficacy, No MS [5]","Viability Efficacy, RLM [5]","p53 activation EC50, RLM [8]","p53 activation EC50, HLM [6]","p53 activation EC50, No MS [3]",other results
CCOP(=O)(OCC)Oc1cc(C)nc(C(C)C)n1 [Diazoxon],39.6,inactive,inactive,inactive,,,,,,,,,,,,"EC50 [1]: 3.83 µM; Emax ([1]; HCT-116, read-out: efficacy): 58.5%; EC50 ([2]; HCT-116): 6.57 µM; Emax ([2]; HCT-116, read-out: efficacy): 43.6%; p53 activation EC50 [3]: inactive; p53 activation efficacy [3]: inactive; EC50 [4, 9]: 20.2 µM; EC50 [7]: 13.9 µM; Emax ([7]; HCT-116, read-out: efficacy): 61.3%"
CCCCSP(=O)(SCCCC)SCCCC [Tribufos],,,,,,,,,,,,,,,,"EC50 [1]: 0.74 µM; EC50 ([2]; HCT-116): 2.16 µM; Emax ([2]; HCT-116, read-out: efficacy): 44.2%; EC50 ([2]; HCT-116, read-out: p53 activation EC50, cherry pick confirmation): 1.86 µM; Emax ([2]; HCT-116, read-out: p53 activation efficacy, cherry pick confirmation): 41.6%; Emax [2, 11]: 36%; p53 activation EC50, cherry pick confirmation [3]: inactive; p53 activation EC50, primary screening [3]: inactive; p53 activation efficacy, cherry pick confirmation [3]: inactive; p53 activation efficacy, primary screening [3]: inactive; Emax [4, 11]: 34.6%; Viability EC50, cherry pick confirmation [5]: inactive; Viability EC50, primary screening [5]: inactive; Viability efficacy, cherry pick confirmation [5]: inactive; Viability efficacy, primary screening [5]: inactive; p53 activation EC50, cherry pick confirmation [6]: inactive; p53 activation efficacy, cherry pick confirmation [6]: inactive; EC50 [7]: 1.32 µM"
"Oc1c(Cl)cc(Cl)c(Cl)c1Cl [2,3,4,6-Tetrachlorophenol]",,,,,39.2893%,34.9,inactive,inactive,inactive,inactive,inactive,inactive,inactive,inactive,,"EC50 [2, 12]: 44.8 µM; EC50 [3, 13]: 17.7 µM; Emax ([3]; Homo sapiens, HCT-116, read-out: p53 activation Efficacy, No MS): 37.3%; EC50 [3, 14]: 34.6 µM"
C[C@]12CC[C@H]3[C@@H](CC[C@@]45O[C@@H]4C(O)=C(C#N)C[C@]35C)[C@@H]1CC[C@@H]2O [Trilostane],53.3,inactive,inactive,inactive,,,,,,,,,,,,"p53 activation EC50 [3]: inactive; EC50 ([3]; Homo sapiens, HCT-116, read-out: p53 activation EC50): 44.1 µM; Emax [3, 16]: 98.3%; EC50 [4, 9]: 41 µM; p53 activation EC50 [8]: inactive; p53 activation efficacy [8]: inactive"
COP(=S)(OC)Oc1ccc(S(N)(=O)=O)cc1 [Cythioate],,,,,inactive,3.59,inactive,inactive,inactive,inactive,inactive,inactive,inactive,inactive,inactive,"p53 activation Efficacy, RLM [8]: inactive"
Oc1c(Cl)c(Cl)c(Cl)c(Cl)c1Cl [Pentachlorophenol],,,,,,,,,,,,,,,,"EC50 ([3]; Homo sapiens, HCT-116, read-out: EC50, p53 activation, cherry pick confirmation): 14.1 µM; EC50 ([3]; Homo sapiens, HCT-116, read-out: EC50, p53 activation, primary screening): 13.4 µM; Emax ([3]; Homo sapiens, HCT-116, read-out: Efficacy, p53 activation, cherry pick confirmation): 32.5%; Emax ([3]; Homo sapiens, HCT-116, read-out: Efficacy, p53 activation, primary screening): 47.3%; EC50 ([4]; HCT-116, read-out: EC50, p53 activation, primary screening): 15.5 µM; Emax ([4]; HCT-116, read-out: Efficacy, p53 activation, primary screening): 30.9%; EC50, viability, cherry pick confirmation [5]: inactive; EC50, viability, primary screening [5]: inactive; Efficacy, viability, cherry pick confirmation [5]: inactive; Efficacy, viability, primary screening [5]: inactive; EC50, p53 activation, cherry pick confirmation [8]: inactive; EC50, p53 activation, primary screening [8]: inactive; Efficacy, p53 activation, cherry pick confirmation [8]: inactive; Efficacy, p53 activation, primary screening [8]: inactive; EC50, p53 activation, cherry pick confirmation [6]: inactive; Efficacy, p53 activation, cherry pick confirmation [6]: inactive"
Nc1nc(Cl)nc2c1ncn2[C@H]1C[C@H](O)[C@@H](CO)O1 [Cladribine],47.1,inactive,inactive,inactive,,,,,,,,,,,,"Emax [2, 10]: 45.7%; p53 activation efficacy [3]: 91.229; Emax [3, 16]: 81%; EC50 ([3]; read-out: p53 activation EC50): 0.665 µM; p53 activation efficacy [8]: 33.0267"
CC(=O)NS(=O)(=O)c1ccc(N)cc1 [Sulfacetamide],,,,,inactive,44.2,inactive,inactive,inactive,inactive,inactive,inactive,inactive,inactive,inactive,"p53 activation Efficacy, RLM [8]: inactive"
Cl[C@H]1[C@H](Cl)[C@@H](Cl)[C@H](Cl)[C@@H](Cl)[C@@H]1Cl [beta-Hexachlorocyclohexane],,,,,inactive,47.3,inactive,inactive,inactive,inactive,inactive,inactive,inactive,inactive,inactive,"p53 activation Efficacy, RLM [8]: inactive"
"Nc1ccc(-c2ccc(N)c(Cl)c2)cc1Cl [3,3'-Dichlorobenzidine]",33.9,inactive,inactive,inactive,,,,,,,,,,,,EC50 ([3]; read-out: p53 activation EC50): 16.4 µM; p53 activation EC50 [8]: inactive; p53 activation efficacy [8]: inactive
Nc1nc(N)c2nc(-c3ccccc3)c(N)nc2n1 [Triamterene],,,,,,16.4,inactive,inactive,inactive,inactive,inactive,inactive,,inactive,,"EC50 [2, 12]: 30.5 µM; EC50 [3, 13]: 28.7 µM; EC50 [3, 14]: 27.6 µM; EC50 [8, 17]: 42.4 µM"
Nc1ccc2c(O)cc(S(=O)(=O)O)cc2c1,27,inactive,inactive,inactive,,,,,,,,,,,,p53 activation efficacy [3]: 61.5673 and 83.6027; p53 activation efficacy [8]: 57.1256 and 31.0337; EC50 ([8]; read-out: p53 activation EC50): 10.9 µM
O=c1ccc2ccccc2o1 [Coumarin],,,,,inactive,28.6,inactive,inactive,inactive,inactive,inactive,inactive,inactive,inactive,inactive,"p53 activation Efficacy, RLM [8]: inactive"
CNC(=O)Oc1ccccc1C(C)C [Isoprocarb],,,,,inactive,8.87,inactive,inactive,inactive,inactive,inactive,inactive,,inactive,inactive,"EC50 [2, 12]: 12 µM; EC50 [8, 17]: 12.5 µM"

# Reference: article PMC9151520 (Archives of Toxicology, 2022)
